Measurements: patent US8835629B2, “Anti-cancer agents” (The Walter and Eliza Hall Institute of Medical Research, priority 2010, dated 2014)
Entries after “also recorded” stand apart in the source; their conditions may differ.

Key:
MDA-MB-231 = assay: Antimitotic effects (G2/M cell cycle block, DNA staining, ModFit) on MDA-MB-231; format: cell-based, human
Description: For the initial studies two colon carcinoma cell lines (LIM1215 and SW480) and two breast cancer cell lines (MDA-MB-231 and MCF-7) were used. Taxol was used as comparator in these experiments (Table 1).

LIM 1215 = assay: MTT cell proliferation assay, LIM 1215; format: cell-based; details: LIM1215, 72 h; LIM 1215 human colorectal carcinoma; MTT after 3 days of incubation; read-out: IC50, inhibition of proliferation
Experimental: (§1) Compound 2 was tested on a series of cell lines to determine its activity and selectivity (Table 2). Cell proliferation was measured using the MTT assay (for protocol see Example 2.6) after 3 days of incubation with the inhibitor.
(§2) • Cells plated at […] in 100 μl medium+5% FCS (+Adds^1): • Cells incubated overnight: • Titrate inhibitors in a fresh plate in 150 μl medium • Transfer 100 μl titrated compounds to matching wells of the cell plate. • Incubate a further 4 days: • Add 10 μl MTS^2 or MTT^3 for 1.5 to 2 hours and read on Multiscanner (wavelengths 492/690) ^1 Additives for culture of LIM cell lines: 10 μM thioglycerol, 0.025 U/ml insulin, 1 μg/ml hydrocortisone. ^2 3-(4,5-dimethylthiazol-2-yl)-5-(3-carboxymethoxyphenyl)-2-(4-sulfophenyl)-2H-tetrazolium. ^3 3-(4,5-Dimethylthiazol-2-yl)-2,5-diphenyltetrazolium bromide
(§3) Cells are trypsinized and washed ×2 in medium+5% FCS and plate out at 10^4 cells per well in 100 μl.
(§4) Incubate plates o/n 37° C.+5%-10% CO2 incubator.
(§5) Inhibitors are dissolved in DMSO to make 10 mM stocks and titrated in a 96 well plate in duplicate to use as the stock for the test plate. […]
(§6) Read OD of plates on Thermo Multiskan Ex, at 560/690 nm.

LIM 2537 = assay: MTT cell proliferation assay, LIM 2537; format: cell-based; details: 72 h; LIM 2537 human colorectal carcinoma; MTT after 3 days of incubation; read-out: IC50, inhibition of proliferation
Experimental: as §1, §2, §3, §4, §5, §6

MCF-7 = assay: MTT cell proliferation assay, MCF-7; format: cell-based; details: MCF7, 72 h; MCF-7 human breast carcinoma; MTT after 3 days of incubation; read-out: IC50, inhibition of proliferation
Experimental: as §1, §2, §3, §4, §5, §6

[1] = Pharmacokinetics of Compound 2 in mouse plasma (RP-HPLC); format: in vivo; details: mice
Experimental: FIG. 6: Plots of plasma concentrations of compound 2 in mice following a single subcutaneous dose of 50 mg/kg. Each point corresponds to an individual mouse. A: Semi-log plot of calculated concentrations of Peak 1 values. B: Semi-log plot of values including all metabolite peaks. C: Mean and se values comparing Peak 1 only with all peaks.
The pharmacokinetic parameters for Compound 2 were determined following injection into mice.
Mouse blood was collected by cardiac puncture after anaesthesia by CO2 gas. Mice were subsequently euthanized. The blood was transferred to an EDTA tube to prevent clotting and the plasma collected after separation by centrifugation. For each sample 25 μl Plasma Was Added To 75 μl Cold 0.1% TFA (v/v) With 5 μM Hydrocortisone (HC) As an internal standard. These processed samples were stored at −20° C. until required. On thawing they were clarified by centrifugation and the extracts were analyzed on RP-HPLC.
Each 100 μl plasma extract was separated on a Zorbax SB-C18, 2.1×150 mm, 5μ column using a linear 50 min gradient of acetonitrile in 0.1% (v/v) TFA at a flow rate of 0.1 ml per minute and a column temperature of 45° C. Detection was at 250 nm.
The concentration of drug in the plasma was determined by the internal standard method of calibration by comparing the ratios of drug to HC peak areas relative to the known standards. Plasma concentrations of compound 2 in the mice from one pharmacokinetics experiment are plotted in FIG. 6

BaF/3 cells = assay: Anti-mitotic effects of metabolites recovered from mouse plasma (G2/M, FACS); format: cell-based, murine; details: BaF3, 24 hr, FACS with Propidium Iodide, concentration of recovered peaks difficult to quantify, read-out: IC50 (G2/M block) of peaks recovered from mouse plasma
Experimental: FIG. 5: Anti-mitotic effects of metabolites recovered from mouse plasma after compound 2 injection. BaF/3 cells were incubated for 24 hr with increasing amounts of each reconstituted peak. Cell cycle distribution was assessed by FACS analysis using Propidium Iodide. The percentage of cells in the G2/M phase of the cell cycle was determined using ModFi
The mouse plasma was fractionated on RP-HPLC and the peaks indicated above were collected. The pooled peak samples were concentrated by lyophilization. A portion of each peak sample was reconstituted in culture media for bioassay (FIG. 5). The remainder was analyzed by LC-MS to confirm the mass and identify the structures.

[2] = system: LIM 2537 (colon carcinoma cell line) tumors; assay: Tumor xenograft study with LIM 2537 cells; format: in vivo, BALB/c nude mice; details: 15 mg/kg SC
Experimental: FIG. 7: LIM2537 tumor growth in nude mice. Tumor diameters were measured with external calipers every three days and tumor volume calculated with the formula: π/6×(L×W^2).
The mice were inoculated with 3×10^6 cells per tumor in 100 μl PBS, one tumor on each flank subcutaneously (SC). Treatments were started on the third day after inoculation with either vehicle control (VC) or 100 μl of drug at 3 mg/ml in aqueous solution giving a dose of 15 mg/kg. Mice were injected SC in the abdomen, three times per week for the duration of the experiment. The mice were monitored for body weight, tumor volume and appearance, and for any adverse reactions to the drug. The experiment was terminated after 33 days and the control group euthanized, as the tumor burden in that group had reached the maximum allowed. The remaining mice were then left without treatment for a further 9 days to monitor resumption of tumor growth.

For `COc1ccc(CNc2nc(NCc3ccc(CN)cc3)nc(NN3CC(=O)NC3=O)n2)cc1` (single isomer, unassigned) [Compound 2, 1-[4-(4-aminomethyl-benzylamino)-6-(4-methoxybenzylamino)-{1,3,5}-triazin-2-yl-amino]-imidazolidine-2,4-dione], the “% of Taxol (proportion of cells in G2M test/proportion of cells in G2M Taxol)” value (MDA-MB-231; 24 hrs, standard 1 μM Taxol) was 103%, the IC50 (MDA-MB-231; Homo sapiens, inhibitors added to cells in log-growth for 24 hrs, read-out: IC50 for progression through the cell cycle) was 9 nM and the IC50 (LIM 1215) was 90 nM. For the same molecule, the IC50 (LIM 2537) was 70 nM, the IC50 (MCF-7) was 10 nM and the “Time therapeutically significant concentrations are maintained in the serum” value [1] was “up to 10 hr”. For the same molecule, the “Plateau concentration in the blood stream” value ([1]; 50 mg/kg in aqueous solution, single subcutaneous dose) was 60 µM, the “Level remaining in the blood stream for 6-10 hours” value ([1]; 50 mg/kg in aqueous solution, for 6-10 hours) was “up to 6 μM” and the half-life ([1]; mouse, plasma, subcutaneous, 50 mg/kg in aqueous solution, read-out: Elimination half-life (converted)) was about 1.5 h. The IC50 (BaF/3 cells) was 100 nM, the “Tumor growth (tumor volume)” value ([2]; 3 injections per week from day 3, 33 days) was “significantly reduced the rate of growth of the tumors; also recorded: successful in slowing the growth of LIM 2537 cells” and the Mouse body weights ([2]; three times per week) was “not affected”. For the same molecule, the “Adverse reaction to the drug” value ([2]; three times per week, aqueous formulation) was “no long term adverse reaction”.
